From the supplement of paper PMC10949913

Key:
Conditions in all cases: 48 h
CU-ACC1 [1] = assay: AC50 viability; higher = less potent
Outline: (§1)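 AC50 and area under the curve values derive from fitted concentration-response curves, restricted to inhibitory or non-responding curve classes. The curves came from three adrenocortical carcinoma cell lines in 1,536-well plates, each receiving 23 nL of every library compound at 11 concentrations. Viability was read by CellTiter-Glo luminescence after 48 h, normalised per plate to vehicle and empty-well controls.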

CU-ACC2 [2] = assay: AC50 viability; higher = less potent
Outline: as §1

NCI-H295R [3] = assay: AC50 viability; higher = less potent
Outline: as §1

CU-ACC1 [4] = assay: area under concentration-response curve (viability) (AUC (a.u.)); higher = less active
Outline: as §1

CU-ACC2 [5] = assay: as above
Outline: as §1

NCI-H295R [6] = assay: as above
Outline: as §1

Row | Compound | AC50 viability (CU-ACC1 [1]) [µM] | AC50 viability (CU-ACC2 [2]) [µM] | AC50 viability (NCI-H295R [3]) [µM] | area under concentration-response curve (CU-ACC1 [4]) | area under concentration-response curve (CU-ACC2 [5]) | area under concentration-response curve (NCI-H295R [6])
1 | CCCCC(=O)OCC(=O)[C@]1(O)Cc2c(O)c3c(c(O)c2[C@@H](O[C@H]2C[C@H](NC(=O)C(F)(F)F)[C@H](O)[C@H](C)O2)C1)C(=O)c1c(OC)cccc1C3=O | 7.42 | 9.34 | 16.6 | 373 | 544 | 537
2 | Cc1n[nH]c2ccc(-c3cncc(OC[C@@H](N)Cc4ccccc4)c3)cc12 | 1.48 | 1.18 | 2.35 | 305 | 342 | 294
3 | Cc1cc(C[S+](=O)([O-])c2ccccc2)cc(OCc2ccc(CN3CCC[C@@H]3CO)cc2)c1 | 14.8 | 20.9 | 26.3 | 428 | 463 | 425
4 | CNC(=O)c1cc(Oc2ccc(NC(=O)Nc3ccc(Cl)c(C(F)(F)F)c3)cc2)ccn1 | 18.6 | 23.5 | 18.6 | 518 | 521 | 539
5 | N=c1c2c(-c3ccccc3)c(-c3ccccc3)n(Cc3ccccc3)c2ncn1[C@H]1CC[C@H](O)CC1 | 18.6 | 18.6 | 18.6 | 341 | 531 | 491
6 | Cn1cc(-c2cnn3c(N)c(Br)c([C@@H]4CCCNC4)nc23)cn1 | 20.9 | 20.9 | 18.6 | 483 | 568 | 471
7 | NC1(Cc2ccc(Cl)cc2)CCN(c2ncnc3[nH]ccc23)CC1 | 16.6 | 18.6 | 14.8 | 444 | 540 | 461
8 | COc1cc(N2CCC(N(C)C)CC2)ccc1Nc1ncc(Cl)c(Nc2ccccc2P(C)(C)=O)n1 | 7.42 | 5.25 | 3.72 | 424 | 419 | 426
9 | CC(=O)[C@]1(O)Cc2c(O)c3c(c(O)c2[C@@H](O[C@H]2C[C@H](N)[C@H](O)[C@H](C)O2)C1)C(=O)c1ccccc1C3=O | 20.9 | 20.9 | 14.8 | 428 | 485 | 377
10 | Cc1ccc(C(=O)Nc2cccc(C(F)(F)F)c2)cc1Nc1nc(-c2cccnc2)nc2c1cnn2C | 23.5 | 20.9 | 18.6 | 440 | 515 | 477
11 | COc1cc2c(Nc3ccc(Cl)c(Cl)c3F)ncnc2cc1OC[C@@H]1C[C@@H]2CN(C)C[C@@H]2C1 | 16.6 | 10.5 | 16.6 | 397 | 515 | 483
12 | Nc1nc(Nc2ccc([S+](N)(=O)[O-])cc2)nn1C(=O)c1c(F)cccc1F | 11.8 | 3.32 | 20.9 | 443 | 466 | 488
13 | CCCCNc1ncc2c(-c3ccc(CN4CCN(C)CC4)cc3)cn([C@H]3CC[C@H](O)CC3)c2n1 | 16.6 | 7.42 | 10.5 | 476 | 544 | 481
14 | Cc1ccc(NC(=O)c2ccc3c(c2)OCCO3)cc1NC(=O)c1ccc2nc(OCCN3CCCC3)ccc2c1 | 6.45 | 0.456 | 2.88 | 303 | 373 | 398
15 | CC(C)[C@]12O[C@H]1[C@@H]3O[C@@]34[C@@]5(C)CC\C6=C(COC6=O)/[C@@H]5C[C@@H]7O[C@]47C2=O | 0.0417 | 0.0525 | 0.833 | 245 | 270 | 329
16 | O=[N+]([O-])c1ccc(Nc2ccccc2-c2ccccc2)c2nonc12 | 9.34 | 8.33 | 8.33 | 426 | 467 | 434
17 | C=CC(=O)Nc1cc2c(Nc3ccc(F)c(Cl)c3)ncnc2cc1OCCCN1CCOCC1 | 11.8 | 8.33 | 14.8 | 443 | 498 | 427
18 | Cc1cc2c(C(N)=O)cccc2n1-c1nc2c(c(NCc3ccccc3)n1)COCC2 | 3.32 | 2.09 | 2.63 | 306 | 467 | 436
19 | CC(C)C1=N[N](C\2=C1C(=O)N\C(=N2)CC3=CC=C(OCCO)C=C3)C4=C(Cl)C=CC=C4Cl | 0.0332 | 0.0209 | 0.0833 | 241 | 183 | 289
20 | C[C@@H]1C[C@H]2[C@@H]3\C=C(C)/C4=C/C5=C(C[C@]4(C)[C@H]3[C@@H](O)C[C@]2(C)[C@@]1(O)C(=O)CO)C=N[N]5C6=CC=CC=C6 | 26.3 | 23.5 | 11.8 | 435 | 563 | 474

Row | Compound | AC50 viability (CU-ACC1 [1]) [µM] | AC50 viability (CU-ACC2 [2]) [µM] | AC50 viability (NCI-H295R [3]) [µM] | area under concentration-response curve (CU-ACC1 [4]) | area under concentration-response curve (CU-ACC2 [5]) | area under concentration-response curve (NCI-H295R [6])
21 | CN(Cc1ccc(/C=C/C(=O)NO)cc1)CC12CC3CC(CC(C3)C1)C2 | 1.05 | 1.05 | 1.66 | 303 | 408 | 365
22 | CNC1CCC(N(Cc2cccc(-c3ccncc3)c2)C(=O)c2sc3ccccc3c2Cl)CC1 (centres undefined) | 10.5 | 7.42 | 9.34 | 406 | 448 | 425
23 | COC(=O)Nc1cc(Nc2cc(NC3CC3)c3ncc(C#N)n3n2)c(Cl)c(N2CCN(C)CC2)c1 | 6.61 | 6.61 | 2.63 | 466 | 506 | 443
24 | CC(C)c1cc(CNc2nc(Nc3cc(C4CC4)[nH]n3)cc(N3CCN(C)CC3)n2)on1 | 8.33 | 2.95 | 5.9 | 429 | 325 | 411
25 | CC(=O)c1ccc2c(c1)c1cc(C(C)=O)ccc1n2CCNC(C)C | 2.09 | 2.95 | 2.35 | 405 | 415 | 421
26 | CN(C)c1cc2c(cc1Sc1nc3c(N)nccc3n1CCNCC(C)(C)C)OCO2 | 2.95 | 2.95 | 2.35 | 391 | 499 | 467
27 | CC(C)[C@]12O[C@H]1[C@@H]3O[C@@]34[C@@]5(C)CC\C6=C(COC6=O)/[C@@H]5C[C@@H]7O[C@]47[C@@H]2O | 0.0525 | 0.059 | 0.295 | 251 | 242 | 274
28 | COCCOc1nc(-c2ccc(Cl)c(Cl)c2)n(-c2ccc(NC(=O)CCl)cc2)n1 | 5.25 | 3.72 | 3.72 | 383 | 415 | 391
29 | CCCC1(CCC)CCC2(CCN(CCCN(CC)CC)C2)CC1 | 4.68 | 6.61 | 4.17 | 309 | 516 | 448
30 | O=C(Nc1c[nH]nc1-c1nc2cc(CN3CCOCC3)ccc2[nH]1)NC1CC1 | 8.33 | 2.63 | 16.6 | 423 | 386 | 350
31 | CC(C)(O)CNc1ncc(-c2ccnc(Nc3ccncc3)n2)c(CC2CC2)n1 | 10.5 | 20.9 | 18.6 | 442 | 485 | 487
32 | COC(=O)C/1=C(C)/N/C(=C(\C1C2=CC(=CC=C2)[N+]([O-])=O)C(=O)OCCCN3CCC(CC3)(C4=CC=CC=C4)C5=CC=CC=C5)C (centres undefined) | 13.2 | 16.6 | 7.42 | 426 | 374 | 465
33 | C[N]1C=C(C=N1)C2=CC=C3N=CC\4=C(N(C(=O)\C=C4)C5=CC6=C(CCN6C(=O)C=C)C=C5)C3=C2 | 0.407 | 0.723 | 0.723 | 349 | 433 | 399
34 | COc1ccc(N2C(=O)N(c3c(C)cccc3Cl)Cc3cnc(Nc4ccc(C5CCN(C)CC5)cc4OC)nc32)nc1 | 18.6 | 18.6 | 14.8 | 451 | 511 | 490
35 | NC1(C(=O)N[C@@H](CCO)c2ccc(Cl)cc2)CCN(c2ncnc3[nH]ccc23)CC1 | 3.72 | 18.6 | 5.9 | 432 | 515 | 463
36 | Cc1cc(F)c(C(=O)Nc2cccc(-c3nncn3C(C)C)n2)cc1-n1cnc(C2CC2)c1 | 18.6 | 11.8 | 18.6 | 427 | 360 | 419
37 | CS[C@H]1SC[C@@H]2C(=O)N(C)[C@H](C(C)C)C(=O)OC[C@H](NC(=O)c3cnc4ccccc4n3)C(=O)N[C@H](C)C(=O)N(C)[C@H]1C(=O)N(C)[C@H](C(C)C)C(=O)OC[C@H](NC(=O)c1cnc3ccccc3n1)C(=O)N[C@H](C)C(=O)N2C | 0.00934 | 0.0209 | 0.0833 | 152 | 235 | 320
38 | CC(C)C1=C(O)C=C(O)C(=C1)C/2=N/NC(=O)N2C3=CC4=C(C=C3)[N](C)C=C4 | 0.0934 | 0.0186 | 0.132 | 322 | 309 | 416
39 | CNc1nccc(-c2cccnc2Oc2cc(C(=O)Nc3cccc(C(F)(F)F)c3)ccc2C)n1 | 14.8 | 18.6 | 18.6 | 461 | 494 | 465
